Patent US20240091299A1, “TOPICAL COMPOSITIONS FOR ENHANCING A MAN'S SEXUAL RESPONSIVENESS AND PERFORMANCE” (The Hidden Vault LLC, priority 2022, published 2024)

Tested on: penis of a person
Test: topical application of the compositions (massage oil) to a person's penis, twice daily
Format: in vivo, human
Conditions: ingredient as included in the compositions, applied topically to a person's penis as a massage oil

C=C(C)[C@@H]1CCC(C)=C[C@H]1c1c(O)cc(CCCCC)cc1O [CBD, Cannabidiol]
effect on sexual arousal, performance, libido and penis size: enhances sexual arousal and performance and stamina
